Data reported in US20230096766A1, “AMINO ACID HAVING FUNCTIONAL GROUP CAPABLE OF INTERMOLECULAR HYDROGEN BONDING, PEPTIDE COMPOUND CONTAINING SAME AND METHOD FOR PRODUCTION THEREOF” (Chugai Seiyaku Kabushiki Kaisha, priority 2018, published 2023).
*1 amine or outer side, *2 acyl side, *3 side chain or, on linkers, in order; H or OH if unused. Where a SMILES comes first, the peptide text is derived from it. Bridges are numbered along the chain shown (N, C = ends). [ ]: non-standard residue; d: D form. The star is where a group is joined. ξ: configuration not given here. hPhe(3-OMe,4-CONHMe) = CNC(=O)c1ccc(CC[C@H](N)C(=O)O)cc1OC; Phe(3-CONHMe,4-OMe) = CNC(=O)c1cc(C[C@H](N)C(=O)O)ccc1OC; NMeAla(4-thiazolyl) = CN[C@@H](Cc1cscn1)C(=O)O; NMePhe(3-Cl) = CN[C@@H](Cc1cccc(Cl)c1)C(=O)O; X12 = O=C([C@H](CCCC(O)C(F)(F)F)N[*:1])[*:2]; ξGln(SO2Me) = CS(=O)(=O)NC(=O)CCC(N)C(=O)O; Tyr(3-F) = N[C@@H](Cc1ccc(O)c(F)c1)C(=O)O; NMeW = CN[C@@H](Cc1c[nH]c2ccccc12)C(=O)O; NMehPhe = CN[C@@H](CCc1ccccc1)C(=O)O; Propyl(2,2-Me2,3-OH) = CC(C)(CO)C*; NMeF = CN[C@@H](Cc1ccccc1)C(=O)O; NMeGABA = CN(CCCC(=O)[*:2])[*:1]; NMeI = CC[C@H](C)[C@H](NC)C(=O)O; CH2CH(OH)CF3 = OC(C*)C(F)(F)F; NMeL = CN[C@@H](CC(C)C)C(=O)O; Propyl(2R-OH) = C[C@@H](O)C*; NMeV = CN[C@H](C(=O)O)C(C)C; NMeAbu = CC[C@H](NC)C(=O)O; NMeA = CN[C@@H](C)C(=O)O; Piperidide = C1CCN(*)CC1; dNMeA = CN[C@H](C)C(=O)O; CH2CMe2OH = CC(C)(O)C*; NBuGly = CCCCNCC(=O)O; NPrGly = CCCNCC(=O)O; Ethyl(2-OH) = OCC*; X3 = C[C@H](O)C*; Sar = CNCC(=O)O; tBu = CC(C)(C)*

experiment: in vitro; settings: human, Caco-2, Caco-2

Row | SMILES | Papp [×10⁻⁶ cm/s]
1 | CCCCN1CC(=O)N(C)[C@@H](C(C)C)C(=O)N[C@H](C(=O)N2CCCCC2)CC(=O)N(C)[C@@H](CC)C(=O)N[C@@H](CC(C)C)C(=O)N(C)[C@@H](CC(C)C)C(=O)N(C)[C@@H](Cc2ccccc2)C(=O)NC(CCC(=O)NS(C)(=O)=O)C(=O)N(C)[C@@H](Cc2ccccc2)C(=O)N(C)[C@@H](CC(C)C)C(=O)N[C@@H](CC(C)C)C1=O (stereo partly drawn) [pd69] ([NMeAbu]L[NMeL][NMeF][ξGln(SO2Me)][NMeF][NMeL]L[NBuGly][NMeV]D-Piperidide; lactam N-11) | < 0.14

same assay, conditions: human, Caco-2, Caco-2 (cm/sec)

Row | SMILES | Papp [×10⁻⁶ cm/s]
2 | CC[C@H](C)[C@@H]1NC(=O)[C@H](CC(C)C)N(C)C(=O)[C@H](COC[C@@H](C)O)NC(=O)[C@H](Cc2ccccc2)N(C)C(=O)CN(C)C(=O)C[C@@H](C(=O)N2CCCCC2)NC(=O)[C@H](CC(C)C)N(C)C(=O)[C@H](COC(C)(C)C)NC(=O)[C@H](CC(C)C)N(C)C(=O)[C@H](Cc2ccccc2)N(C)C(=O)CN(C)C1=O [AP88] ([Sar][NMeF]S(Propyl(2R-OH))[NMeL]I[Sar][NMeF][NMeL]S(tBu)[NMeL]D-Piperidide; lactam N-11) | 3.3
3 | CNC(=O)c1ccc(CC[C@@H]2NC(=O)[C@H](CC(C)C)N(C)C(=O)[C@H]([C@@H](C)O)NC(=O)[C@H](CC(C)C)N(C)C(=O)[C@H](CC(C)C)N(C)C(=O)[C@@H](C)N(C)C(=O)C[C@@H](C(=O)N3CCCCC3)NC(=O)[C@H](CC(C)C)N(C)C2=O)cc1OC [AP262] ([dNMeA][NMeL][NMeL]T[NMeL][hPhe(3-OMe,4-CONHMe)][NMeL]D-Piperidide; lactam N-8) | 0.17
4 | CCCCN1CC(=O)N(C)[C@@H](CC(C)C)C(=O)N[C@@H](COC(C)(C)C)C(=O)N(C)[C@@H](CC(C)C)C(=O)N(C)[C@@H](CC)C(=O)N[C@H](C(=O)N2CCCCC2)CC(=O)N[C@H](CC(C)C)C(=O)N(C)[C@@H](Cc2ccccc2)C(=O)N[C@@H](CCc2ccc(C(=O)NC)c(OC)c2)C(=O)N(C)[C@@H](CC(C)C)C(=O)N[C@@H]([C@@H](C)O)C1=O [AP201] ([dL][NMeF][hPhe(3-OMe,4-CONHMe)][NMeL]T[NBuGly][NMeL]S(tBu)[NMeL][NMeAbu]D-Piperidide; lactam N-11) | 0.35
5 | CC[C@H](C)[C@@H]1NC(=O)[C@H](CC(C)C)N(C)C(=O)CCCN(C)C(=O)C[C@@H](C(=O)N2CCCCC2)NC(=O)[C@H](CC(C)C)N(C)C(=O)[C@H](CC(C)C)N(C)C(=O)[C@H]([C@@H](C)O)NC(=O)[C@H](CC(C)C)N(C)C(=O)[C@H](Cc2ccc(OC)c(C(=O)NC)c2)NC(=O)[C@H](CC(C)C)N(C)C(=O)[C@H](Cc2ccccc2)N(C)C1=O [AP38] ([NMeGABA][NMeL]I[NMeF][NMeL][Phe(3-CONHMe,4-OMe)][NMeL]T[NMeL][NMeL]D-Piperidide; lactam N-11) | 0.2
6 | CC(C)C[C@H]1C(=O)N[C@H](C(=O)N2CCCCC2)CC(=O)N(C)CCCC(=O)N(C)[C@@H](CC(C)C)C(=O)N[C@@H](Cc2ccc(O)c(F)c2)C(=O)N(C)[C@@H](CC(C)C)C(=O)N(C)[C@@H](Cc2ccccc2)C(=O)N[C@@H](COC(C)(C)C)C(=O)N(C)[C@@H](CC(C)C)C(=O)N[C@@H]([C@@H](C)O)C(=O)N(C)CC(=O)N1C [pd114] ([NMeGABA][NMeL][Tyr(3-F)][NMeL][NMeF]S(tBu)[NMeL]T[Sar][NMeL]D-Piperidide; lactam N-11) | 0.17
7 | CC(C)C[C@H]1C(=O)N(C)[C@@H](CC(C)C)C(=O)N(C)[C@@H](Cc2c[nH]c3ccccc23)C(=O)N[C@@H]([C@@H](C)O)C(=O)N(C)[C@@H](C)C(=O)N(C)[C@@H](CC(C)C)C(=O)N[C@H](C(=O)N2CCCCC2)CC(=O)N(C)[C@@H](C)C(=O)N(C)[C@@H](CC(C)C)C(=O)N(C)[C@@H](CC(C)C)C(=O)N[C@@H](C)C(=O)N1C [pd105] ([NMeA][NMeL][NMeL]A[NMeL][NMeL][NMeW]T[NMeA][NMeL]D-Piperidide; lactam N-11) | 0.28
8 | CCCCN1CC(=O)N(C)[C@@H](CC(C)C)C(=O)N[C@H](C(=O)N2CCCCC2)CC(=O)N(C)[C@@H](C)C(=O)N[C@@H](COC[C@@H](C)O)C(=O)N(C)[C@@H](CC(C)C)C(=O)N(C)[C@@H](Cc2cccc(Cl)c2)C(=O)N[C@@H](CC(C)C)C(=O)N(C)[C@@H](Cc2ccccc2)C(=O)N(C)[C@@H]([C@@H](C)CC)C(=O)N[C@@H]([C@@H](C)O)C1=O [AP75] ([NMeA]S(Propyl(2R-OH))[NMeL][NMePhe(3-Cl)]L[NMeF][NMeI]T[NBuGly][NMeL]D-Piperidide; lactam N-11) | 1.1
9 | CCCN1CC(=O)N(C)[C@@H](CC(C)C)C(=O)N[C@H](C(=O)N2CCCCC2)CC(=O)N(C)[C@@H](C)C(=O)N[C@@H](COCC(C)(C)O)C(=O)N(C)[C@@H](CC(C)C)C(=O)N(C)[C@@H](Cc2ccccc2)C(=O)N[C@@H](CC(C)C)C(=O)N(C)[C@@H](Cc2ccccc2)C(=O)N(C)[C@@H]([C@@H](C)CC)C(=O)N[C@@H]([C@@H](C)O)C1=O [AP05] ([NMeA]S(CH2CMe2OH)[NMeL][NMeF]L[NMeF][NMeI]T[NPrGly][NMeL]D-Piperidide; lactam N-11) | 2.8
10 | CC[C@H](C)[C@H]1C(=O)N[C@@H]([C@@H](C)O)C(=O)N(C)CC(=O)N(C)[C@@H](CC(C)C)C(=O)N[C@H](C(=O)N2CCCCC2)CC(=O)N(C)[C@@H](C(C)C)C(=O)N[C@@H](COC[C@H](C)O)C(=O)N(C)[C@@H](CC(C)C)C(=O)N(C)[C@@H](Cc2cccc(Cl)c2)C(=O)N[C@@H](CC(C)C)C(=O)N(C)[C@@H](Cc2ccccc2)C(=O)N1C [AP69] ([NMeV]S(X3)[NMeL][NMePhe(3-Cl)]L[NMeF][NMeI]T[Sar][NMeL]D-Piperidide; lactam N-11) | 0.7
11 | CC(C)C[C@@H]1NC(=O)[C@H](CCc2ccccc2)N(C)C(=O)[C@H](CCc2ccccc2)N(C)C(=O)[C@H](COCCO)NC(=O)[C@H](CC(C)C)N(C)C(=O)CCCN(C)C(=O)C[C@@H](C(=O)N2CCCCC2)NC(=O)[C@H](CC(C)C)N(C)C(=O)[C@H](CC(C)C)N(C)C(=O)[C@H]([C@@H](C)O)NC(=O)[C@H](CC(C)C)N(C)C1=O [Compound A03] ([NMeGABA][NMeL]S(Ethyl(2-OH))[NMehPhe][NMehPhe]L[NMeL]T[NMeL][NMeL]D-Piperidide; lactam N-11) | 0.32
12 | CCCCN1CC(=O)N(C)[C@@H](Cc2ccccc2)C(=O)N(C)[C@@H](CC(C)C)C(=O)N[C@@H](COC(C)(C)C)C(=O)N(C)[C@@H](CC(C)C)C(=O)N[C@H](C(=O)N2CCCCC2)CC(=O)N(C)CC(=O)N(C)[C@@H](Cc2cccc(Cl)c2)C(=O)N[C@@H](COC[C@@H](C)O)C(=O)N(C)[C@@H](CC(C)C)C(=O)N[C@@H]([C@@H](C)O)C1=O [AP77] ([Sar][NMePhe(3-Cl)]S(Propyl(2R-OH))[NMeL]T[NBuGly][NMeF][NMeL]S(tBu)[NMeL]D-Piperidide; lactam N-11) | 1
13 | CCCCN1CC(=O)N(C)[C@@H](Cc2ccccc2)C(=O)N(C)[C@@H](C(C)C)C(=O)N[C@@H](COC(C)(C)C)C(=O)N(C)[C@@H](CC(C)C)C(=O)N[C@H](C(=O)N2CCCCC2)CC(=O)N(C)CC(=O)N(C)[C@@H](Cc2cccc(Cl)c2)C(=O)N[C@@H](COCC(C)(C)CO)C(=O)N(C)[C@@H](CC(C)C)C(=O)N[C@@H]([C@@H](C)O)C1=O [AP123] ([Sar][NMePhe(3-Cl)]S(Propyl(2,2-Me2,3-OH))[NMeL]T[NBuGly][NMeF][NMeV]S(tBu)[NMeL]D-Piperidide; lactam N-11) | 0.8
14 | CC[C@H](C)[C@@H]1NC(=O)[C@H](CC(C)C)N(C)C(=O)CCCN(C)C(=O)C[C@@H](C(=O)N2CCCCC2)NC(=O)[C@H](CC(C)C)N(C)C(=O)[C@H](CC(C)C)N(C)C(=O)[C@H]([C@@H](C)O)NC(=O)[C@H](CC(C)C)N(C)C(=O)[C@H](COCC(C)(C)CO)NC(=O)[C@H](Cc2ccccc2)N(C)C(=O)[C@H](Cc2ccccc2)N(C)C1=O [AP120] ([NMeGABA][NMeL]I[NMeF][NMeF]S(Propyl(2,2-Me2,3-OH))[NMeL]T[NMeL][NMeL]D-Piperidide; lactam N-11) | 1.1

same assay, conditions: human, Caco-2, Caco-2 (cm/sec) Papp

Row | SMILES | Papp [×10⁻⁶ cm/s]
15 | CC(C)C[C@@H]1NC(=O)[C@H](CC(C)C)N(C)C(=O)C[C@@H](C(=O)N2CCCCC2)NC(=O)[C@H](CC(C)C)N(C)C(=O)CN(C)C(=O)[C@H]([C@@H](C)O)NC(=O)[C@H](Cc2cscn2)N(C)C(=O)[C@H](Cc2ccccc2)N(C)C(=O)[C@H](Cc2ccccc2)NC(=O)[C@H](Cc2ccccc2)N(C)C(=O)[C@H](CC(C)C)N(C)C1=O [pd228] ([NMeL]L[NMeL][NMeF]F[NMeF][NMeAla(4-thiazolyl)]T[Sar][NMeL]D-Piperidide; lactam N-11) | 0.58
16 | CC[C@H](C)[C@@H]1NC(=O)[C@H](Cc2ccccc2)N(C)C(=O)[C@H](C)N(C)C(=O)C[C@@H](C(=O)N(C)[C@@H](Cc2ccccc2)C(=O)N(C)[C@@H](Cc2ccccc2)C(=O)N[C@@H](C)C(=O)N2CCCCC2)NC(=O)[C@H](CC(C)C)N(C)C(=O)[C@H](Cc2ccccc2)N(C)C(=O)[C@H]([C@@H](C)O)NC(=O)[C@H](CC(C)C)N(C)C(=O)[C@H](CC(C)C)N(C)C(=O)[C@H](C)N(C)C1=O [pd240] ([NMeA][NMeF]I[NMeA][NMeL][NMeL]T[NMeF][NMeL]D[NMeF][NMeF]A-Piperidide; lactam N-10) | 0.06

same assay, conditions: human, Caco-2, Caco-2 (membrane permeability)

Row | SMILES | Papp [×10⁻⁶ cm/s]
17 | CC[C@H](C)[C@H]1C(=O)N[C@@H](C(C)C)C(=O)N(C)CC(=O)N(C)[C@@H](CC(C)C)C(=O)N[C@H](C(=O)N2CCCCC2)CC(=O)N(C)[C@@H](C)C(=O)N[C@@H](COCC(O)C(F)(F)F)C(=O)N(C)[C@@H](CC(C)C)C(=O)N(C)[C@@H](Cc2ccccc2)C(=O)N[C@@H](CC(C)C)C(=O)N(C)[C@@H](Cc2ccccc2)C(=O)N1C (stereo partly drawn) [Compound C15] ([NMeA]S(CH2CH(OH)CF3)[NMeL][NMeF]L[NMeF][NMeI]V[Sar][NMeL]D-Piperidide; lactam N-11) | 0.83
18 | CCCCN1CC(=O)N(C)[C@@H](Cc2ccccc2)C(=O)N(C)[C@@H](CC(C)C)C(=O)N[C@@H](COC(C)(C)C)C(=O)N(C)[C@@H](CC(C)C)C(=O)N[C@H](C(=O)N2CCCCC2)CC(=O)N(C)CC(=O)N(C)[C@@H](Cc2cccc(Cl)c2)C(=O)N[C@@H](CCCC(O)C(F)(F)F)C(=O)N(C)[C@@H](CC(C)C)C(=O)N[C@@H]([C@@H](C)O)C1=O (stereo partly drawn) [Compound D06] ([Sar][NMePhe(3-Cl)][X12][NMeL]T[NBuGly][NMeF][NMeL]S(tBu)[NMeL]D-Piperidide; lactam N-11) | 0.23
